# According to paper PMC11374660, “The novel family of Warbicin® compounds inhibits glucose uptake both in yeast and human cells and restrains cancer cell proliferation” (Frontiers in Oncology, 2024):
# pIC50, pKi: −log10 of the molar value. Like-named read-outs stand apart in the source and are kept apart here.
# Columns and labels:
# [1] = tested on: glucose uptake by tps1Δ yeast cells; assay: Zero-trans uptake of radioactive glucose in tps1Δ yeast cells; assay type: cell-based, S. cerevisiae; settings: for pIC50: Saccharomyces cerevisiae
# Method: (§1) Zero-trans uptake of radioactively labeled [U-^14C]glucose, [U-^14C]fructose or [U-^14C]galactose by S. cerevisiae cells was determined in accordance with previous studies ([45], [75]). Cells were grown on different carbon sources depending on the experiment. For measuring glucose uptake activity in the tps1Δ and tps1Δ hxtΔ strains, cells were grown on YP medium containing 325 mM glycerol (measurement of 10 s). Typically, for compound characterization and kinetic studies in wild type and tps1Δ strains, cells were (pre)grown on Complete Synthetic medium supplemented with 110 mM galactose (measurement of 10 s). In the experiments on the influence of hexokinase activity on the sugar uptake rate, the measurement duration was shortened to 5 s and cells were always grown on YP medium containing 325 mM glycerol and 430 mM ethanol. After harvesting, cells were washed twice with ice-cold 25 mM MES-buffer pH 6, and resuspended in their respective medium without sugar to a final concentration of 45 mg (wet weight)/mL. The amount of added tracer was estimated to give a response close to at least 1000 counts per min in order to adequately counter background noise. Cells were first preincubated for 10 min at 30°C with the compound to acclimate the cells to the temperature and to allow adequate interaction with the compound prior to uptake. Next, hexose sugar was mixed with the cell suspension, which was then incubated at 30°C for 5 or 10 s, depending on the experiment, after which the cells were rapidly filtered over a glass microfiber filter (Whatman GF/C) and washed three times with ice-cold dH2O. The loaded filter was transferred to a scintillation vial containing 3 mL liquid scintillation cocktail (Ultima-Flo M, Perkin Elmer) and counted using the Hidex 300 SL. Three blank measurements per strain were typically included to account for background signal, for which the cells were first quenched before adding the radioactive label.
# [2] = tested on: MCF10A breast epithelial cell line transformed with H-RAS^V12; assay: Growth and apoptosis of MCF10A H-RAS^V12 cells (IncuCyte); assay type: cell-based, human; settings: MCF10A H-RAS^V12, 1 mM glucose, 25 µM
# Method: For both adherent A549 and MCF10A H-RAS^V12 cell lines, growth curves were established using the IncuCyte® ZOOM technology. By collecting phase contrast images, the IncuCyte® software provides a calculated confluency percentage from which growth curves can be deducted. The cell number/density was measured by calculating the confluency of phase objects (cells) sticking on the bottom of the well. Cells were seeded at a density of 1000 - 1500 cells/well in a Nunc-Edge™ 96-well plate (Thermo Fisher Scientific) and growth was typically measured over 3 to 5 days. For the measurement of apoptosis induction using the MCF10A H-RAS^V12 cell line, the IncuCyte® Caspase-3/7 green dye was added to the medium in the recommended concentration at the beginning of the growth curve experiment. Apoptosis was detected by taking fluorescent images by excitation at 488 nm followed by IncuCyte® software analysis. Cell growth of the KMS-12-PE multiple myeloma cell line, which grows in suspension, was measured by manual cell counting. Cells were initially seeded at a density of 10^4 cells/well and incubated for 4 days after which the cell number was counted. For all cell lines, the same medium used for pregrowth was also used for the growth curve experiment, albeit with different glucose concentrations depending on the experimental design. With compound administration, the final concentration of DMSO never exceeded 0.1%. Typically, at least four technical repeats were included per condition.
# [3] = tested on: hexokinase; assay: Hexokinase activity in extracts of wild type yeast cells; assay type: biochemical, S. cerevisiae; settings: 50 µM; variable glucose / 5 mM ATP and variable ATP / 5 mM glucose
# Method: In vitro hexokinase activity of yeast cells was determined as described previously ([44], [76]). As such, the yeast cells were first grown to exponential phase on Complete Synthetic medium supplemented with 110 mM galactose. The cells were harvested and washed with ice-cold 25 mM MES buffer pH 6. Subsequently, cells were resuspended in lysis buffer (50 mM HEPES pH 7, 150 mM NaCl, 2.5 mM MgCl2, 5% glycerol and 1% Triton X-100) containing protease inhibitor after which the yeast cells were mechanically lysed. After protein level determination, total protein concentration was diluted to 0.1 mg/mL in reaction buffer (50 mM HEPES pH 7, 150 mM NaCl, 2.5 mM MgCl2, 5% glycerol). For measuring activity, reaction buffer was supplemented with 1.07 mM NADP^+ and 10 U/mL Glu6P dehydrogenase (Sigma-Aldrich G7877). After temperature equilibration of the plate at 30°C, the reaction was started by adding both ATP and glucose to the reaction buffer. OD340 was measured using the Synergy H1 Hybrid reader and hexokinase activity was determined based on the linear increase of absorbance in the first 10-20 s.
# [4] = tested on: wild type yeast cells; assay: Growth of wild type yeast (general toxicity); assay type: cell-based, S. cerevisiae; settings: 100 µM; 110 mM glucose medium and 325 mM glycerol + 430 mM ethanol medium
# Method: Growth curves were made by measuring OD595 in a 96-well plate using the Multiskan™ FC Microplate Photometer (Thermo Fisher Scientific). Typically, for tps1Δ rescue experiments, cells were (pre)grown in Complete Synthetic medium containing 110 mM galactose. Compounds were always added 10 min prior to glucose addition to ensure maximal interaction between the cells and compounds. Cells originating from the preculture were harvested, washed in medium without sugar, after which they were resuspended to an OD of 0.1 in 200 µL of the appropriate medium. At least three technical replicates were included per condition. OD595 was measured at 30°C every 30 min with a 10-min shaking interval.
# [5] = tested on: HXK2 hxk1Δ glk1Δ yeast cells; assay: Sugar uptake in HXK2 hxk1Δ glk1Δ yeast cells; assay type: cell-based, S. cerevisiae
# Method: as §1, with “Cells were first preincubated for 10 min at 30°C with the compound to acclimate the cells to the temperature and to allow adequate interaction with the compound prior to uptake. Next, hexose sugar was mixed with the cell suspension, which was then incubated at 30°C for 5 or 10 s, depending on the experiment, after which the cells were rapidly filtered over a glass microfiber filter (Whatman GF/C) and washed three times with ice-cold dH2O.” left out, “Three blank measurements per strain were typically included to account for background signal, for which the cells were first quenched before adding the radioactive label.” left out
# [6] = tested on: hxk2Δ hxk1Δ GLK1 yeast cells; assay: Sugar uptake in hxk2Δ hxk1Δ GLK1 yeast cells; assay type: cell-based, S. cerevisiae
# Method: as §1
# [7] = Saccharomyces cerevisiae, read-out: inhibition of fructose transport
# [8] = 250 µM CCCP or 50 µM WBC-A 10 min prior, 100 mM maltose with the tracer
Compound,pIC50 ([1]; read-out: IC50 values for 2.5 mM glucose uptake in tps1∆ cells),induction of apoptosis (caspase 3/7 dye) [2],inhibition of proliferation [2],pIC50 ([1]; read-out: IC50 for inhibition of 2.5 mM glucose uptake),type of inhibition of glucose uptake ([1]; tps1Δ yeast cells),"pKi ([1]; tps1Δ yeast cells, read-out: Ki (Dixon plot) for glucose uptake)",effect on in vitro hexokinase activity [3],growth inhibition of wild type yeast [4],"inhibition at 50 µM [5, 7] [%]",1 mM glucose uptake rate ([5]; strain expressing Hxk2),"fructose uptake at tracer concentration [6, 8]","glucose uptake at tracer concentration [6, 8]","inhibition at 50 µM [6, 7] [%]"
Cc1nc(SCC(=O)c2ccc3c(c2)NC(=O)CO3)c2c(-c3cccs3)csc2n1 [WBC-11C],4.36,strong induction of apoptosis,highest potency,,,,,,,,,,
Cc1nc(Sc2nnc3n2CCCCC3)c2c(-c3cccs3)csc2n1 [WBC-A],,,,4.68,mixed type of inhibition,5.08,No significant effect,did not cause any growth inhibition at all,> 75,strong decrease in glucose uptake rate,little inhibition of fructose uptake,strong inhibition of glucose uptake,~30
